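Values below derive from 48-hour exposures of cells grown in 96-well plates, with endpoints linearly interpolated between the two concentrations bracketing the appropriate inhibition level. The concentration for 50% growth inhibition is given as GI50.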 The source made the active and inactive calls. No stated cut-off is given here; in the data, active = GI50 up to about 1.1 µM and inactive = higher.
How the values were obtained:
Test in all cases: inhibition of tumour cell growth, NCI panel, 48 h
786-0 = system: 786-0
OVCAR-4 = system: OVCAR-4
MDA-MB-435 = system: MDA-MB-435
LOX IMVI = system: LOX IMVI
SK-OV-3 = system: SK-OV-3
HOP-92 = system: HOP-92
MCF7 = system: MCF7
SF-295 = system: SF-295
HCT-15 = system: HCT-15
SF-539 = system: SF-539
HT-29 = system: HT-29
HOP-62 = system: HOP-62
PC-3 = system: PC-3
HCT-116 = system: HCT-116
SK-MEL-2 = system: SK-MEL-2
SNB-19 = system: SNB-19
Malme-3M = system: Malme-3M
NCI-H522 = system: NCI-H522
CCRF-CEM = system: CCRF-CEM
RXF 393 = system: RXF 393

| SMILES | GI50 (786-0) | GI50 (OVCAR-4) | GI50 (MDA-MB-435) | GI50 (LOX IMVI) | GI50 (SK-OV-3) | GI50 (HOP-92) | GI50 (MCF7) | GI50 (SF-295) | GI50 (HCT-15) | GI50 (SF-539) | GI50 (HT-29) | GI50 (HOP-62) | GI50 (PC-3) | GI50 (HCT-116) | GI50 (SK-MEL-2) | GI50 (SNB-19) | GI50 (Malme-3M) | GI50 (NCI-H522) | GI50 (CCRF-CEM) | GI50 (RXF 393) |
| --- | --- | --- | --- | --- | --- | --- | --- | --- | --- | --- | --- | --- | --- | --- | --- | --- | --- | --- | --- | --- |
| Oc1ccc(-c2csc(N/N=C3\NC/C(=C/c4ccc5c(c4)OCO5)S3)n2)cc1O | 30.6 µM (inactive) | 32.9 µM (inactive) | 3.21 µM (inactive) | 11.6 µM (inactive) | > 100 µM (inactive) | 38.5 µM (inactive) | 6.43 µM (inactive) | 43.2 µM (inactive) | 19.1 µM | 3.18 µM (inactive) | 38.5 µM (inactive) | 22.1 µM (inactive) | 26.4 µM (inactive) | 29.3 µM (inactive) | 10 µM (inactive) | 14.4 µM (inactive) |  |  |  |  |
| O=C(Nn1c(-c2ccccc2)nc2ccccc2c1=O)c1ccccc1O | 65.2 µM (inactive) | 30.7 µM (inactive) | 49.4 µM (inactive) | 48.6 µM (inactive) | 58.9 µM (inactive) | 27.2 µM (inactive) | 28.1 µM (inactive) | 63.2 µM (inactive) | 29.4 µM | 33.7 µM (inactive) | 61.2 µM (inactive) | 76.9 µM (inactive) | 28.9 µM (inactive) | 33.5 µM (inactive) |  | 45 µM (inactive) | 25.7 µM (inactive) | 32.9 µM (inactive) | 25.2 µM (inactive) | 28.2 µM (inactive) |
| O=C(O)c1ccc(S(=O)(=O)c2ccccc2[N+](=O)[O-])cc1 | > 10 µM (inactive) | > 10 µM (inactive) | > 10 µM (inactive) | > 10 µM (inactive) | > 10 µM (inactive) |  | > 10 µM (inactive) | > 10 µM (inactive) | > 10 µM | > 10 µM (inactive) | > 10 µM (inactive) | > 10 µM (inactive) | > 10 µM (inactive) | > 10 µM (inactive) | > 10 µM (inactive) | > 10 µM (inactive) | > 10 µM (inactive) | > 10 µM (inactive) | > 10 µM (inactive) | > 10 µM (inactive) |
| CCCC1CC(=O)NC(=O)C1C(=O)OC(C)(C)C (stereo not drawn) | > 100 µM (inactive) | > 100 µM (inactive) | > 100 µM (inactive) | > 100 µM (inactive) |  |  | > 100 µM (inactive) | > 100 µM (inactive) | > 100 µM |  | > 100 µM (inactive) | > 100 µM (inactive) | > 100 µM (inactive) | > 100 µM (inactive) | > 100 µM (inactive) | > 100 µM (inactive) | > 100 µM (inactive) | > 100 µM (inactive) |  | > 100 µM (inactive) |
| COc1ccccc1NCC(=O)Nn1c(C)nc2ccc(S(=O)(=O)Nc3ccccc3OC)cc2c1=O | > 100 µM (inactive) | > 100 µM (inactive) | 26.7 µM (inactive) | > 100 µM (inactive) | > 100 µM (inactive) | > 100 µM (inactive) | 63 µM (inactive) | 36.1 µM (inactive) | 56.1 µM | > 100 µM (inactive) | 43.8 µM (inactive) | > 100 µM (inactive) | 88.5 µM (inactive) | > 100 µM (inactive) | > 100 µM (inactive) | > 100 µM (inactive) | 97.7 µM (inactive) | 35.6 µM (inactive) | 53.5 µM (inactive) |  |
| C#CCSC(C=C=C)P(=O)(OC(C)C)OC(C)C (stereo not drawn) | 46.2 µM (inactive) | > 100 µM (inactive) | > 100 µM (inactive) | > 100 µM (inactive) | > 100 µM (inactive) | > 100 µM (inactive) | 33.7 µM (inactive) | > 100 µM (inactive) | 30.5 µM |  | 33 µM (inactive) | > 100 µM (inactive) | > 100 µM (inactive) | 27 µM (inactive) | > 100 µM (inactive) | > 100 µM (inactive) | 31.4 µM (inactive) | 23.3 µM (inactive) |  | > 100 µM (inactive) |
| Cc1cccc(Nc2cn(COCc3ccccc3)c(=O)[nH]c2=O)c1 | > 100 µM (inactive) | 41.5 µM (inactive) | > 100 µM (inactive) | 56.2 µM (inactive) |  | > 100 µM (inactive) | 72.6 µM (inactive) | 72.1 µM (inactive) | > 100 µM |  | 64.6 µM (inactive) | 20.8 µM (inactive) | > 100 µM (inactive) | 90.8 µM (inactive) |  | > 100 µM (inactive) |  | 10.2 µM (inactive) | > 100 µM (inactive) | 56 µM (inactive) |
| CN(C)CCNC(=O)Cn1cc([N+](=O)[O-])c(=O)c2ccccc21 | > 100 µM (inactive) |  | > 100 µM (inactive) |  | > 100 µM (inactive) |  | > 100 µM (inactive) | > 100 µM (inactive) | > 100 µM | > 100 µM (inactive) | > 100 µM (inactive) | > 100 µM (inactive) | > 100 µM (inactive) | > 100 µM (inactive) | > 100 µM (inactive) | > 100 µM (inactive) | > 100 µM (inactive) | > 100 µM (inactive) | > 100 µM (inactive) |  |
| O=S(=O)(c1ccc(Br)cc1)n1c2ccc(Br)cc2c2nc3ccccc3nc21 | 31.6 µM (inactive) | 67.9 µM (inactive) | > 100 µM (inactive) | > 100 µM (inactive) | 52 µM (inactive) | 39.7 µM (inactive) |  | 68.1 µM (inactive) | > 100 µM |  | > 100 µM (inactive) | 34.3 µM (inactive) | > 100 µM (inactive) | > 100 µM (inactive) | 57.5 µM (inactive) | 49.3 µM (inactive) | > 100 µM (inactive) | > 100 µM (inactive) | 14.1 µM (inactive) | 20.1 µM (inactive) |
| O=C1c2sc(-c3ccc(Cl)cc3)cc2-n2cccc21 | > 100 µM (inactive) | > 100 µM (inactive) | > 100 µM (inactive) | > 100 µM (inactive) | > 100 µM (inactive) |  | > 100 µM (inactive) | > 100 µM (inactive) | > 100 µM |  | > 100 µM (inactive) | > 100 µM (inactive) | > 100 µM (inactive) | > 100 µM (inactive) | > 100 µM (inactive) | > 100 µM (inactive) | > 100 µM (inactive) | > 100 µM (inactive) | > 100 µM (inactive) | > 100 µM (inactive) |
| C#CCCCC(=C)C[C@@H]1OC(=O)[C@H](C)[C@@H]1O | > 100 µM (inactive) | > 100 µM (inactive) | > 100 µM (inactive) | > 100 µM (inactive) | > 100 µM (inactive) | > 100 µM (inactive) | > 100 µM (inactive) | > 100 µM (inactive) | > 100 µM |  |  | > 100 µM (inactive) | > 100 µM (inactive) | > 100 µM (inactive) | > 100 µM (inactive) | > 100 µM (inactive) |  |  | > 100 µM (inactive) | > 100 µM (inactive) |
| C=C(C)C1Cc2c(cc3c(c2O)c(=O)c2ccccc2n3C)O1 (stereo not drawn) | 1.51 µM (inactive) | 6.81 µM (inactive) | 5.78 µM (inactive) |  | 4.97 µM (inactive) | 7.67 µM (inactive) | 2.94 µM (inactive) | 5.78 µM (inactive) | 2.75 µM | 2.4 µM (inactive) | 2.61 µM (inactive) | 9.12 µM (inactive) | 5.71 µM (inactive) | 2.03 µM (inactive) | 5.42 µM (inactive) | 2.61 µM (inactive) | 1.63 µM (inactive) |  | 0.724 µM (active) | 2.75 µM (inactive) |
| O=C1NC(=O)C(CCC(=O)c2cccc3ccccc23)C(=O)N1 | > 100 µM (inactive) | > 100 µM (inactive) | > 100 µM (inactive) | > 100 µM (inactive) | > 100 µM (inactive) | > 100 µM (inactive) | > 100 µM (inactive) | 60.1 µM (inactive) | > 100 µM | > 100 µM (inactive) | > 100 µM (inactive) |  | > 100 µM (inactive) | > 100 µM (inactive) | > 100 µM (inactive) | > 100 µM (inactive) |  |  | > 10 µM (inactive) | > 100 µM (inactive) |
| CCCCC/C=C\C=C1\C(=O)C=C[C@@H]1C/C=C\CCCC(=O)O | 3.21 µM (inactive) | 1.53 µM (inactive) | 2.42 µM (inactive) | 2.27 µM (inactive) | 7.06 µM (inactive) |  | 4.09 µM (inactive) | 3.87 µM (inactive) | 5.24 µM | 5.82 µM (inactive) | 5.05 µM (inactive) | 2.89 µM (inactive) | 1.84 µM (inactive) | 1.23 µM (inactive) | 3.05 µM (inactive) | 4.51 µM (inactive) | 10.2 µM (inactive) |  | 0.205 µM (active) | 1.94 µM (inactive) |
| Cc1ccc(N/C(SCc2ccccc2)=C(\C(Cl)=C(Cl)Cl)[N+](=O)[O-])c(C)c1 | 23.6 µM (inactive) | 10.8 µM (inactive) | 7.21 µM (inactive) |  | 39.8 µM (inactive) |  | 35.3 µM (inactive) | 23.7 µM (inactive) | 17.7 µM | 19.9 µM (inactive) | 29.8 µM (inactive) | 8.13 µM (inactive) | 37.2 µM (inactive) | 16.8 µM (inactive) | 39.6 µM (inactive) | 30.4 µM (inactive) | 21.4 µM (inactive) |  | 31 µM (inactive) |  |
| O=c1c(O)c(-c2ccc(O)cc2O)oc2cc(O)cc(O)c12 [MORIN] | > 100 µM (inactive) | > 100 µM (inactive) | > 100 µM (inactive) | > 100 µM (inactive) |  | > 100 µM (inactive) | > 100 µM (inactive) | > 100 µM (inactive) | > 100 µM | > 100 µM (inactive) | > 100 µM (inactive) | > 100 µM (inactive) | > 100 µM (inactive) | 86.1 µM (inactive) | > 100 µM (inactive) | > 100 µM (inactive) | > 100 µM (inactive) | > 10 µM (inactive) | > 100 µM (inactive) |  |
